Data taken from patent US20210231678A1, “ALLERGY ANTIGEN AND EPITOPE THEREOF” (FUJITA ACADEMY, priority 2020, published 2021).

What follows are substances tested on IgE antibody present in the serum of a patient (latex-allergic) (assay: Latex epitope mapping (2) overlapping 10-residue peptides and (3) alanine/glycine scanning on peptide arrays). Conditions: serum of latex-allergic patient P1.
Assay type: binding, human
Description: On the basis of the sequences (SEQ ID NOs: 5, 25, 35, 68 and 83) of the peptides bound to an IgE antibody in serum in a patient-specific manner as described above in (A), a library of overlapping peptide fragments (length: 10 amino acids) was prepared using the sequences of the peptides and sequences in which sequences were added so as to flank each peptide in the amino acid sequences of allergy components comprising the sequences of the peptide. Epitope mapping was carried out using the library.
The peptides to be synthesized were shifted by one amino acid.
The library was prepared by the same procedure as described above in (A), and the presence or absence of binding of an IgE antibody present in the serum of a patient to each peptide fragment was measured by the same technique as described above. Numeric values determined from images obtained as a result of carrying out only the procedures (1) and (4) to (6) described above in the subsection titled (3) Spotting of cellulose-bound peptide solution were used as control values. The control value of each peptide was subtracted from numeric values determined from images obtained from results about the serum of patients, and the obtained value of the difference was compared with values of the peptides serving as the basis of overlapping.
Chemiluminescence intensity in images obtained by measurement was converted into a numeric value in the same manner as in (A). Numeric values determined from images obtained as a result of carrying out only the procedures (1) and (4) to (6) described above in the subsection titled (3) Spotting of cellulose-bound peptide solution (secondary antibody measurement values) were used as control values. The control value of each peptide was subtracted from numeric values determined from images obtained from results about the serum of patients. When values obtained using the sequences (SEQ ID NOs: 5, 25, 35, 68 and 83) serving as the basis of overlapping were defined as 100%, it was determined that: a peptide having a value of the difference that was less than 30% had no binding activity against IgE antibodies; a peptide having a value of the difference that was 30% or more and less than 50% had binding activity, albeit poor, against IgE antibodies; a peptide having a value of the difference that was 50% or more and less than 70% had binding activity, albeit somewhat poor, against IgE antibodies; and a peptide having a value of the difference that was 70% or more had equivalent or good binding activity against IgE antibodies and was thus a peptide had remaining binding activity against IgE antibodies.
From the amino acid sequences identified above in (A), a library of peptide fragments in which amino-terminal amino acids were substituted one by one by alanine (or glycine when the original amino acid was alanine) according to a technique called alanine/glycine scanning (Non Patent Literature 5) was prepared by the same technique as described above. The presence or absence of binding of an IgE antibody present in the serum of a patient to each peptide fragment was measured by the same technique as described above.
Chemiluminescence intensity in images obtained by measurement was converted into a numeric value in the same manner as in (A). Numeric values determined from images obtained from secondary antibody measurement values were used as control values. The control value of each peptide was subtracted from numeric values determined from images obtained from results about the serum of 17 patients (patient Nos. P1-P17). […]
With 84 (SKFYDDKNG; epitope) [compound 84] the “epitope sequence grade for binding to IgE antibody” value (“epitope sequence grade for binding” below) was “More preferably”.
For 69 (HKVGKGEI; epitope) [compound 69], the “epitope sequence grade for binding” value was “Preferably”.
In the case of 88 (DDKNGYSSS; epitope) [compound 88], the “epitope sequence grade for binding” value is reported as “More preferably”.
With 87 (YDDKNGYSSS; epitope) [compound 87] the “epitope sequence grade for binding” value was “Further preferably”.
With 6 (QKPY; epitope) [compound 6] the “epitope sequence grade for binding” value was “Key”.

Same assay, conditions: serum of latex-allergic patient P2
For 91 (WSKFYDDK; epitope) [compound 91], the “epitope sequence grade for binding” value was “Further preferably”.
95 (DDKNGYSSS; epitope) [compound 95] was tested, and the “epitope sequence grade for binding” value was “More preferably”.
In the case of 7 (DNFVIQKPYD; epitope) [compound 7], the “epitope sequence grade for binding” value is reported as “Preferably”.
With 92 (KFYDDKNGYS; epitope) [compound 92] the “epitope sequence grade for binding” value was “More preferably”.
In the case of 93 (KFYDDK; epitope) [compound 93], the “epitope sequence grade for binding” value is reported as “Preferably”.
With 26 (DKPLN; epitope) [compound 26] the “epitope sequence grade for binding” value was “Key”.

Same assay, conditions: serum of latex-allergic patient P3
39 (SYKSNSV; epitope) [compound 39] was tested, and the “epitope sequence grade for binding” value was “Preferably”.
In the case of 38 (SYKSNSVA; epitope) [compound 38], the “epitope sequence grade for binding” value is reported as “More preferably”.

Same assay, conditions: serum of latex-allergic patient P4
In the case of 98 (WSKFYDDK; epitope) [compound 98], the “epitope sequence grade for binding” value is reported as “More preferably”.
99 (KFYDDKNGYS; epiotope) [compound 99] was tested, and the “epitope sequence grade for binding” value was “Preferably”.

Same assay, conditions: serum of latex-allergic patient P5
In the case of 106 (KFYDDK; epitope) [compound 106], the “epitope sequence grade for binding” value is reported as “Key”.
For 44 (SYKSNS; epitope) [compound 44], the “epitope sequence grade for binding” value was “Preferably”.
In the case of 75 (HKVGKGEI; epitope) [compound 75], the “epitope sequence grade for binding” value is reported as “More preferably”.
“107 (YDDKNGYSSS; epitope) [compound 107]” was tested, and the “epitope sequence grade for binding” value was “Preferably”.

Same assay, conditions: serum of latex-allergic patient P6
In the case of 9 (EDNFVIQKPY; epitope) [compound 9], the “epitope sequence grade for binding” value is reported as “More preferably”.
For 27 (KPYDKP; epitope) [compound 27], the “epitope sequence grade for binding” value was “Key”.

Same assay, conditions: serum of latex-allergic patient P7
12 (QKPYD; epitope) [compound 12] was tested, and the “epitope sequence grade for binding” value was “Preferably”.
With “110 (YDDKNGYSSS; epitope) [compound 110]” the “epitope sequence grade for binding” value was “Preferably”.

Same assay, conditions: serum of latex-allergic patient P8
In the case of 48 (KSNSVATDI; epitope) [compound 48], the “epitope sequence grade for binding” value is reported as “Further preferably”.
15 (QKPYD; epitope) [compound 15] was tested, and the “epitope sequence grade for binding” value was “Key”.

Same assay, conditions: serum of latex-allergic patient P9
In the case of 52 (LKSYK; epitope) [compound 52], the “epitope sequence grade for binding” value is reported as “Key”.
With 53 (KSNSVATDIY; epitope) [compound 53] the “epitope sequence grade for binding” value was “Further preferably”.
29 (DKPLNDR; epitope) [compound 29] was tested, and the “epitope sequence grade for binding” value was “Key”.

Same assay, conditions: serum of latex-allergic patient P12
With 19 (QKPY; epitope) [compound 19] the “epitope sequence grade for binding” value was “Key”.
57 (LKSYKSNSVA; epitope) [compound 57] was tested, and the “epitope sequence grade for binding” value was “Most preferably”.
With 114 (KFYDDK; epitope) [compound 114] the “epitope sequence grade for binding” value was “Key”.
In the case of 18 (QKPYDK; epitope) [compound 18], the “epitope sequence grade for binding” value is reported as “Preferably”.
58 (SYKSNSVATD; epitope) [compound 58] was tested, and the “epitope sequence grade for binding” value was “Still further preferably”.
In the case of “112 (WSKFYDDKNG; epitope) [compound 112]”, the “epitope sequence grade for binding” value is reported as “More preferably”.

Same assay, conditions: serum of latex-allergic patient P13
66 (SYKSNS; epitope) [compound 66] was tested, and the “epitope sequence grade for binding” value was “Key”.
With 30 (KPLN; epitope) [compound 30] the “epitope sequence grade for binding” value was “Key”.

Same assay, conditions: serum of latex-allergic patient P17
With 80 (KVGKGEITVF; epitope) [compound 80] the “epitope sequence grade for binding” value was “More preferably”.
For “118 (YDDKNGYSSS; epitope) [compound 118]”, the “epitope sequence grade for binding” value was “Preferably”.
With 33 (KPYDKPLNDR; epitope) [compound 33] the “epitope sequence grade for binding” value was “Preferably”.
With 117 (SKFYD; epitope) [compound 117] the “epitope sequence grade for binding” value was “Key”.
For 21 (FVIQKPYD; epitope) [compound 21], the “epitope sequence grade for binding” value was “Further preferably”.
For 115 (WSKFYDDKN; epitope) [compound 115], the “epitope sequence grade for binding” value was “More preferably”.
For 116 (WSKFYD; epitope) [compound 116], the “epitope sequence grade for binding” value was “Preferably”.

Same assay, conditions: short partial sequences of the 15-residue epitopes
With KVGK (epitope) [SEQ ID NO: 78] the “confirmed as epitope binding to IgE antibodies” value was “confirmed as epitopes binding to IgE antibodies”.

These substances were tested on IgE antibody present in the serum of a latex-allergic patient (assay: Latex epitope mapping (1): array of overlapping 15-amino-acid peptides). Conditions: 15-residue peptides; serum of 17 latex-allergic patients; chemiluminescence difference from N2nd value of at least 35,000 = bound.
Assay type: binding, human
Description: Epitope mapping was carried out using a library of overlapping peptides (length: 15 amino acids) corresponding to the amino acid sequences identified as allergy components of latex. Specifically, the library of overlapping peptides was prepared on the basis of the amino acid sequences of SEQ ID NOs: 2 and 4.
The peptides to be synthesized were shifted by 10 amino acids.
For preparation of peptide arrays, the Intavis CelluSpots™ technique was used. Specifically, the peptide arrays were prepared by the following procedure: (1) synthesizing peptides of interest on amino-modified cellulose disks using an automated chemical synthesis apparatus (Intavis MultiPep RS), (2) dissolving the amino-modified cellulose disks to obtain a cellulose-bound peptide solution, and (3) spotting the cellulose-bound peptides onto coated glass slides. The details of each procedure are as described below.
The presence or absence of binding, to each peptide fragment, of an IgE antibody present in the serum of a latex-allergic patient was measured through antigen-antibody reaction using the peptide arrays. The measurement was carried out according to the following procedure.
(1) The peptides were shaken at room temperature for 1 hour in Pierce Protein-Free (PBS) Blocking Buffer (produced by Thermo Fisher Scientific). (2) The peptide arrays were shaken at overnight at 4° C. in 2% serum/Pierce Protein-Free (PBS) Blocking Buffer (produced by Thermo Fisher Scientific). (3) The peptide arrays were washed with PBST (a PBS buffer containing […] Tween 20 nonionic surfactant) for 5 minutes (×3). (4) Anti-human IgE antibody-HRP (1:20,000, Pierce Protein-Free (PBS) Blocking Buffer (produced by Thermo Fisher Scientific)) was added thereto, and the peptide arrays were shaken at room temperature for 1 hour. (5) The peptide arrays were washed with PBST for 5 minutes (×3). (6) Pierce ECL Plus Western Blotting Substrate (produced by Thermo Fisher Scientific) was added thereto, and the peptide arrays were shaken at room temperature for 5 minutes. (7) The chemiluminescence of the peptides treated as described above in (1) to (6) was measured using Amersham Imager 600.
Chemiluminescence intensity in images obtained by the measurement described above in (7) was converted into a numeric value using ImageQuant TL (GE Healthcare). The second highest value among numeric values determined from images obtained from results about the serum of 4 non-latex-allergic subjects was defined as the N2nd value. The N2nd value of each peptide was subtracted from numeric values determined from images obtained from results about the serum of 17 patients (17 latex-allergic patients; respectively given patient Nos. P1-P17). It was determined that a peptide having a value of at least 35,000 as the difference was a peptide bound to an IgE antibody in a patient-specific manner.
For “DLKSYKSNSVATDIY (epitope) [SEQ ID NO: 35]”, the “patient-specific binding of IgE antibody to peptide” value (from here on “patient-specific binding”) was “confirmed to bind”.
For “KPYDKPLNDRYSYKN (epitope) [SEQ ID NO: 25]”, the “patient-specific binding” value was “confirmed to bind”.
With “WSKFYDDKNGYSSSI (epitope) [SEQ ID NO: 83]” the “patient-specific binding” value was “confirmed to bind”.
“PLTEDNFVIQKPYDK (epitope) [SEQ ID NO: 5]” was tested, and the “patient-specific binding” value was “confirmed to bind”.
With “VNVIHKVGKGEITVF (epitope) [SEQ ID NO: 68]” the “patient-specific binding” value was “confirmed to bind”.
